Data: patent US20220153766A1, “CONDENSED TRICYCLIC COMPOUND USED AS KINASE INHIBITOR” (Hangzhou Innogate Pharma Co., Ltd., priority 2019, published 2022)

How the values were obtained:
[1] = biological target: MAP4K1 (HPK1) (Homo sapiens, UniProt Q92918); assay: MAP4K1 (HPK1) kinase activity inhibition, Caliper mobility shift assay; type: biochemical; details: kinase 1.25 nM, ATP 10.1 μM
Protocol: 4. MAP4K1 (HPK1) Kinase Activity Inhibition Experiment: Caliper mobility shift assay was used to detect the inhibitory effect of the compound on MAP4K1 (HPK1) kinase activity. The test concentration of the compound starts at 500 nM, and is diluted 5 folds into 5 concentration points. Use a dispenser Echo 550 to transfer 250 nL 100-fold final concentration of the compound to the target plate 3573, add 10 μL of MAP4K1 (HPK1) kinase solution with a final concentration of 1.25 nM, and incubate for 10 minutes at room temperature (the negative control well contains 10 μL kinase buffer and 250 nL 100% DMSO; the positive control well contains 10 μL kinase solution and 250 nL 100% DMSO). On the kinase MAP4K1 (HPK1), add 15 μL of ATP with a final concentration of 10.1 μM and 3 μM substrate peptide No. 25 mixed solution to react for 120 minutes. Add 30 μL of stop solution containing EDTA to stop the kinase reaction. Use Caliper EZ Reader to read the conversion rate. Inhibition rate %=(Average positive control conversion rate %−Sample conversion rate %/(Average positive control conversion rate %−Average negative control conversion rate %). Among them: negative control wells represent the conversion rate readings without enzyme activity; positive control wells represent the conversion rate readings of wells without compound inhibition. Take the log value of the concentration as the X-axis, and the percentage inhibition rate on the Y-axis. Log (inhibitor) vs. response—Variable slope of analysis software GraphPad Prism 5 was used to fit the curve to obtain the IC50 value of each compound on the enzyme activity. Calculation formula: Y=Bottom+(Top−Bottom)/(1+10 ^((Log IC50−X)*HillSlope)).

[2] = biological target: T1, Ba/F3_EGFR del19/T790M/C797S cells (Homo sapiens, UniProt P00533, T790M/C797S, cells depend on it, form not given); assay: Ba/F3_EGFR (del19-T790M-C797S) cell proliferation inhibition, CTG, method 1; type: cell-based
T1 sequence (P00533 with tags, fused parts or gaps DEL746-750/T790M/C797S, form open): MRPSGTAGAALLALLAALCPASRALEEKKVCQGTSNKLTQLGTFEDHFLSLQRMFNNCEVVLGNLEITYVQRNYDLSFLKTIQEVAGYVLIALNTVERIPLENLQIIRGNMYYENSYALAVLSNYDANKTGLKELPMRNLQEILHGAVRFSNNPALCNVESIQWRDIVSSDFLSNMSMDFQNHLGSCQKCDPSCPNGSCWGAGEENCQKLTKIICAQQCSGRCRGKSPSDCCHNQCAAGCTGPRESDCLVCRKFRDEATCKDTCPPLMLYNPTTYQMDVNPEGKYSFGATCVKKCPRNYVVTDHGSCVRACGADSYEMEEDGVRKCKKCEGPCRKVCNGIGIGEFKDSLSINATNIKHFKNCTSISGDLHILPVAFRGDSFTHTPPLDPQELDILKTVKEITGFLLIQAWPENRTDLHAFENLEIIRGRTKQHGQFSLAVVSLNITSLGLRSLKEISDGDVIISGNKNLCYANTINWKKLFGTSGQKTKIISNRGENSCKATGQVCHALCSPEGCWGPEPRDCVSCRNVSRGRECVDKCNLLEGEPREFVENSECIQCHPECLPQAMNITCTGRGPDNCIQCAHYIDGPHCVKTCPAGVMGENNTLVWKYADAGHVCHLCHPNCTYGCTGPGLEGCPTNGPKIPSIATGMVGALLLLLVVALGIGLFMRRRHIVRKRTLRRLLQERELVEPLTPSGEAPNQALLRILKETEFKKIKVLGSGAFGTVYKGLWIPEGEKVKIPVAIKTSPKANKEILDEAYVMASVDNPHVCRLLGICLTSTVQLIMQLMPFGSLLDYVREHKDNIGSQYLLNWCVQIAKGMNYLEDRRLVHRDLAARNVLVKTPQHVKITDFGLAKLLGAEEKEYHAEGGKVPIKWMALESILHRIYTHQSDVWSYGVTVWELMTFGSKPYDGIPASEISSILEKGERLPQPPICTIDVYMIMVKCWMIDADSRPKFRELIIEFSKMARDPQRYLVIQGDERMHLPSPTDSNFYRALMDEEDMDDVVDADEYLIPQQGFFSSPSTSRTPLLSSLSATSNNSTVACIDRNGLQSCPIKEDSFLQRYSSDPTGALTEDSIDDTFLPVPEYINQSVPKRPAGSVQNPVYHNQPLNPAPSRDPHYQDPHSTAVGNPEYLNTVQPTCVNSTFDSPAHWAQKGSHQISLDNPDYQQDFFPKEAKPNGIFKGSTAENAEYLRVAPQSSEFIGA
Protocol: The cells were cultured in a 37° C., 5% CO2 incubator.
Cell plating and compound treatment: 1) Cells are routinely cultured until the cell saturation is 80%-90%, and when the number reaches the requirement, the cells are collected. 2) Resuspend in the corresponding fresh medium, take a small amount of cells to count, and prepare a cell suspension with a suitable density. 3) Inoculate the cell suspension into a 384-well plate at 700 cells/well, 30 μL per well. 4) Use Echo to add the compound to the corresponding cell well. The maximum starting concentration of the compound is 1-10 μM, 3 folds dilution, 8 concentrations.
CTG method detection: 1) Add 30 μL of CTG reagent (CelltiterGlo kit) to each well, and let it stand for 30 minutes at 37° C. and 5% CO2 in the dark. 2) Use Envision instrument to read the chemiluminescence signal value.
Data analysis: IC50 results are analyzed by GraphPad Prism 6 software. […] X: log value of compound concentration; Y: inhibition rate (% inhibition); inhibition rate (% inhibition)=(blank control well reading−compound well reading)/(blank control well reading−positive control reading)×100.

[3] = biological target: T1, Ba/F3_EGFR del19/T790M/C797S cells; assay: Ba/F3_EGFR (del19-T790M-C797S) cell proliferation inhibition, CTG, method 2; type: cell-based; details: 2000 cells/well, 72 h, read-out: Ba/F3_EGFR (del19-T790M-C797S) cell proliferation inhibition (IC50 value) Method 2
Protocol: Take a small amount of cells and count them with ViCell. 2) Adjust the cell density, inoculate the cells in a 384-well plate at 2000/well, and incubate in a 37° C., 5% CO2 incubator for 4 hours. 3) Set up the program of Tecan HP D300, add the compound to the well plate. The maximum initial concentration of the compound is 1-4 μM, 3 folds dilution, 9 concentrations, and the DMSO content in each well is unified to 0.2%.
CTG method detection: 1) Take out the CTG reagent and cell plate and equilibrate at room temperature for 30 min, add 25 μL CTG to each well, shake at medium speed for 2 min, centrifuge at 1000 rpm for 1 minutes, and stand still at room temperature for 10 minutes. 2) Envision instrument reads the chemiluminescence signal value.
Data analysis: IC50 results are analyzed by IDBS's XL-fit 5.0 software.

[4] = biological target: EGFR (C797S) (Homo sapiens, UniProt P00533, C797S); assay: EGFR (C797S) kinase activity inhibition, Lantha screen Assay; type: biochemical; details: kinase 10 nM, ATP 0.1 μM
Protocol: 1. EGFR (C797S) Kinase Activity Inhibition Experiment: The Lantha screen Assay method was used to test the inhibitory activity of the compounds at a kinase EGFR (C797S) concentration of 10 nM and an ATP concentration of 0.1 μM. The control samples were Staurosporine. Experimental Steps: […] 2) Control sample Staurosporine and test samples preparation: Staurosporine and the compounds of the embodiment of the present invention are formulated into a gradient concentration solution in 100% DMSO, and diluted to 10% DMSO with the above-mentioned buffer, and added to a 384-well plate. For example, if the initial concentration of the compound is 10 μM, 100% DMSO is used to prepare a 1000 μM solution, and 10 concentration gradients are diluted, and 100 nL solution is transferred to a 384-well plate with Echo*LIQUID HANDLE RS (LABCYTE, USA). […] Transfer 5 μL to the 384-well plate and incubate with the compound for 10-15 minutes. […] Transfer 5 μL to the 384-well plate to initiate the reaction, and incubate at room temperature for 30 minutes. [table] 5) Use TR-Fret dilution buffer to prepare 2-fold detection solution. The final concentration of Antibody is 2 nM and the final concentration of EDTA is 10 mM. Transfer 10 μL of detection solution to the reaction wells of the 384-well plate, shake and mix, and incubate at room temperature for 60 min. 6) Read the ratio of excitation at 340 nm and emission at 520 nm to 495 nm on Envision, and calculate the inhibition rate. 7) Fit IC50 with XL-fit software.

[5] = biological target: ALK (Homo sapiens, UniProt Q9UM73); assay: ALK kinase activity inhibition, Caliper mobility shift assay, method 1; type: biochemical
ALK, sequence (Q9UM73 19-1620): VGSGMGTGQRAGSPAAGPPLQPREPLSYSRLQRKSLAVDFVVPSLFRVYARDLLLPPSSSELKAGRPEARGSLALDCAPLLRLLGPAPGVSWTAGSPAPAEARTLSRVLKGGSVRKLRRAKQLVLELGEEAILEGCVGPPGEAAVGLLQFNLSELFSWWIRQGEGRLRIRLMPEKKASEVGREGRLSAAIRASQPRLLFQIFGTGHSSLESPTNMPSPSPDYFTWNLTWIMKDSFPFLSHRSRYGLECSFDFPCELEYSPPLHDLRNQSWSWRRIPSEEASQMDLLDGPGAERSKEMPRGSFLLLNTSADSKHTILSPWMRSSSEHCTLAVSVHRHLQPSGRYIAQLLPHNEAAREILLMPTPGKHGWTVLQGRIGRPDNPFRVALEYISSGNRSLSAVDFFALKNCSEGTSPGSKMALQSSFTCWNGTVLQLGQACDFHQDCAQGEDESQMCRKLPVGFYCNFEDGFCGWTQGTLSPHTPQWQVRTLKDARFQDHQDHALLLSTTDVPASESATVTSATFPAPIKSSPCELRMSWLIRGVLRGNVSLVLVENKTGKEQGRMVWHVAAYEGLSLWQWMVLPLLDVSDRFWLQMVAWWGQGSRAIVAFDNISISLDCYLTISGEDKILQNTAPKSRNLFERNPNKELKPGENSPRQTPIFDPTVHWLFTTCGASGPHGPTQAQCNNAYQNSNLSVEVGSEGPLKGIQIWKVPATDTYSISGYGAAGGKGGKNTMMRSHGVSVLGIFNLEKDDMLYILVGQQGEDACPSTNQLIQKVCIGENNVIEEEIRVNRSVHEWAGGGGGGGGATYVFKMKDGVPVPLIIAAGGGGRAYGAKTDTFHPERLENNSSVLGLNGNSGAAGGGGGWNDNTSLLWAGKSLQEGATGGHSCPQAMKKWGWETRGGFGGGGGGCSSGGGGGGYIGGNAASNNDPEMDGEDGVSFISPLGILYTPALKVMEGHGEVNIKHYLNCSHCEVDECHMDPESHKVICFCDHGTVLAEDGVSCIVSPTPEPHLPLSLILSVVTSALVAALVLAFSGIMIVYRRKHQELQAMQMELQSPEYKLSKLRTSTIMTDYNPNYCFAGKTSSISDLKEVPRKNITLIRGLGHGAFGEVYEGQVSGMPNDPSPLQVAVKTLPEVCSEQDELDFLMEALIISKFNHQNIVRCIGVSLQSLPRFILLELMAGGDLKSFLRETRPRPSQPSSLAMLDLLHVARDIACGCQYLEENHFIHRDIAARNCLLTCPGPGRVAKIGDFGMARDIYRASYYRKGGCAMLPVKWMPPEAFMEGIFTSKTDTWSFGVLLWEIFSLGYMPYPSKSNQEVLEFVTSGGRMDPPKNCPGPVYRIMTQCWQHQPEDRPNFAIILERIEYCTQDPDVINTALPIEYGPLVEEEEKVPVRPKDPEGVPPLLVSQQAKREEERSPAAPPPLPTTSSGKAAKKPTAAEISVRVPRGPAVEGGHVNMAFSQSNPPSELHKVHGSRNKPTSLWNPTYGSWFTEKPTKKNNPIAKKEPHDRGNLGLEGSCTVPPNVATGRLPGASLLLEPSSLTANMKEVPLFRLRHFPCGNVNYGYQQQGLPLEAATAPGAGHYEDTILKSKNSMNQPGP
Protocol: 2. ALK Kinase Activity Inhibition Experiment: Method 1: In vitro enzymatic activity of ALK was measured using Caliper mobility shift assay. […] Add 10 μL of 2.5-fold enzyme solution and incubate at room temperature for 10 minutes, then add 10 μL of 2.5-fold substrates (Peptide FAM-P22 and ATP) solution. […] Read conversion rate data on Caliper EZ Reader II (Caliper Life Sciences). Convert the conversion rate into inhibition rate (% inhibition=(max−conversion rate)/(max−min)*100). Max refers to the conversion rate of the DMSO control, and min refers to the conversion rate without enzyme activity. With the compound concentration and inhibition rate on the abscissa and ordinate, draw the curve, use XLFit excel add-in version 5.4.0.8 software to fit the curve and calculate the IC50.

[6] = biological target: EGFR (T790M/L858R/C797S) (Homo sapiens, UniProt P00533, C797S/L858R/T790M); assay: EGFR (T790M/L858R/C797S) kinase activity inhibition, Caliper mobility shift assay; type: biochemical; details: kinase 2.5 nM, ATP 40 μM
EGFR (T790M/L858R/C797S), sequence (P00533 25-1210 T790M/C797S/L858R): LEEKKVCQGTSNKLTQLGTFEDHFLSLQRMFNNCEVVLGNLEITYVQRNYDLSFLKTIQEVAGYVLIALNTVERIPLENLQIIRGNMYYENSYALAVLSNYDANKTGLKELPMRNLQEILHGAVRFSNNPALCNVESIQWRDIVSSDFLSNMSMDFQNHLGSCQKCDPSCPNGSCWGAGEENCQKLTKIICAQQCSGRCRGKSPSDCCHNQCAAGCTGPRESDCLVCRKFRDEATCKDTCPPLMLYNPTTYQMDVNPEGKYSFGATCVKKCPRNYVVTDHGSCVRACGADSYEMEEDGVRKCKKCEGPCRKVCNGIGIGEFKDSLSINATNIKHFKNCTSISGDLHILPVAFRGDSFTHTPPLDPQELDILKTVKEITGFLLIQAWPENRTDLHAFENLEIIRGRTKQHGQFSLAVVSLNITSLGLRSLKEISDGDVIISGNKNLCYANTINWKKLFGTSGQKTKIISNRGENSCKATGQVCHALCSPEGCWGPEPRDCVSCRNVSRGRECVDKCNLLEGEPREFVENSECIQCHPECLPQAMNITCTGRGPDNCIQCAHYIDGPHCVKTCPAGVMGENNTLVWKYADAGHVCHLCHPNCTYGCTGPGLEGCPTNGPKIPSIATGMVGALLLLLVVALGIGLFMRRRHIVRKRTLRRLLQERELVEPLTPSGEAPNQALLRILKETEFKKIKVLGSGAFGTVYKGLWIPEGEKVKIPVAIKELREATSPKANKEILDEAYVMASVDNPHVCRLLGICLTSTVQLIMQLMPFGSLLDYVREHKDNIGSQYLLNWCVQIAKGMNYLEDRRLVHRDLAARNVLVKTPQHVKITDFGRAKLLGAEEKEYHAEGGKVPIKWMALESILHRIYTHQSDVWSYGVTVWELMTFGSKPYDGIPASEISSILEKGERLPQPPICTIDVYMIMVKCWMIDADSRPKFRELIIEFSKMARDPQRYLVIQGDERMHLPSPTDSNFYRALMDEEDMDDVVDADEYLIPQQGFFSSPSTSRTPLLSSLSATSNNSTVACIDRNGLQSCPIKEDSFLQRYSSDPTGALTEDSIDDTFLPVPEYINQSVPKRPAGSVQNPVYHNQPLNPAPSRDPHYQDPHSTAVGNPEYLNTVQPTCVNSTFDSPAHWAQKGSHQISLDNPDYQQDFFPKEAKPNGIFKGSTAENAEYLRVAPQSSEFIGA
Protocol: The basic method is the same as ALK activity test method 2. The test concentration of the compound starts at 2 μM, and is diluted 5 folds into 6 (7 for individual compounds) concentration points. […] Add 30 μL of stop solution containing EDTA to stop the kinase reaction. Use Caliper EZ Reader to read the conversion rate. Inhibition rate %=(Average positive control conversion rate %−Sample conversion rate %/(Average positive control conversion rate %−Average negative control conversion rate %). Among them: negative control wells represent the conversion rate readings without enzyme activity; positive control wells represent the conversion rate readings of wells without compound inhibition. Take the log value of the concentration as the X-axis, and the percentage inhibition rate on the Y-axis. Log (inhibitor) vs. response—Variable slope of analysis software GraphPad Prism 5 was used to fit the curve to obtain the IC50 value of each compound on the enzyme activity. Calculation formula: Y=Bottom+(Top−Bottom)/(1+10^((Log IC50−X)*HillSlope)).

[7] = Pharmacokinetic study in rats after intragastrical administration; type: in vivo; details: male, rat, plasma, po, SD rats, 3 mg/kg; for AUC(0-t): read-out: AUC0-24 h
Protocol: Example 55: Pharmacokinetic Study in Rats
Instruments: XEVO TQ-S LC/MS instrument produced by Waters. All measurement data is collected and processed by Masslynx V4.1 software, and the data is calculated and processed by Microsoft Excel. Using WinNonLin 8.0 software, the statistical moment method was used to calculate the pharmacokinetic parameters. Mainly include kinetic parameters Tmax, T1/2, Cmax, AUClast etc. […] Injection volume: 5 μL.
Animals: 3 male SD rats with a weight range of 200-220 g. After purchase, they will be kept in the laboratory of the Experimental Animal Center for 2 days and then used. They will be fasted for 12 hours predose and 4 hours after dosing. Drinking water is free during the test. After the rats were gavage, blood samples were taken according to the established time point.
Solvent: 0.5% Methylcellulose (aqueous solution containing 0.4% Tween 80 and 1% ethanol). Preparation of the solution for intragastrical administration: accurately weigh the compound, add it to the solvent, and ultrasonically at room temperature for 5 minutes to completely dissolve the drug, and prepare a 0.3 mg/ml medicinal solution.
Pharmaceutical samples: representative compounds of the structure shown in the patented formula (I) of the present invention, generally, multiple samples with similar structures (with a molecular weight difference of more than 2 units) are taken, accurately weighed, and administered together (cassette PK). In this way, multiple compounds can be screened at the same time and their oral absorption rates can be compared. A single administration was also used to study the pharmacokinetics of the drug sample in rats.
After intragastrical administration, blood was taken from the orbit at 0.25, 0.5, 1, 2, 4, 9, 12 and 24 hours, and placed in a plastic centrifuge tube pretreated with sodium heparin. After centrifugation, the supernatant plasma was used for LC-MS/MS analysis.
Accurately weigh the compounds to prepare different concentrations, perform quantitative analysis on mass spectrometry to establish a standard curve, and then test the concentration of the above-mentioned compound in the plasma to obtain the compound concentration at different time points. All measurement data are collected and processed by relevant software, and the statistical moment method is used to calculate the pharmacokinetic parameters (mainly including kinetic parameters Tmax, T1/2, Cmax, AUClast etc). The results are as follows:
Table 7: Pharmacokinetic Parameters of the Compounds after Intragastrical Administration in SD Rats

[8] = 700 cells/well, 72 h, read-out: Ba/F3_EGFR (del19-T790M-C797S) cell proliferation inhibition (IC50 value) Method 1

MAP4K1 (HPK1), sequence (Q92918 whole entry): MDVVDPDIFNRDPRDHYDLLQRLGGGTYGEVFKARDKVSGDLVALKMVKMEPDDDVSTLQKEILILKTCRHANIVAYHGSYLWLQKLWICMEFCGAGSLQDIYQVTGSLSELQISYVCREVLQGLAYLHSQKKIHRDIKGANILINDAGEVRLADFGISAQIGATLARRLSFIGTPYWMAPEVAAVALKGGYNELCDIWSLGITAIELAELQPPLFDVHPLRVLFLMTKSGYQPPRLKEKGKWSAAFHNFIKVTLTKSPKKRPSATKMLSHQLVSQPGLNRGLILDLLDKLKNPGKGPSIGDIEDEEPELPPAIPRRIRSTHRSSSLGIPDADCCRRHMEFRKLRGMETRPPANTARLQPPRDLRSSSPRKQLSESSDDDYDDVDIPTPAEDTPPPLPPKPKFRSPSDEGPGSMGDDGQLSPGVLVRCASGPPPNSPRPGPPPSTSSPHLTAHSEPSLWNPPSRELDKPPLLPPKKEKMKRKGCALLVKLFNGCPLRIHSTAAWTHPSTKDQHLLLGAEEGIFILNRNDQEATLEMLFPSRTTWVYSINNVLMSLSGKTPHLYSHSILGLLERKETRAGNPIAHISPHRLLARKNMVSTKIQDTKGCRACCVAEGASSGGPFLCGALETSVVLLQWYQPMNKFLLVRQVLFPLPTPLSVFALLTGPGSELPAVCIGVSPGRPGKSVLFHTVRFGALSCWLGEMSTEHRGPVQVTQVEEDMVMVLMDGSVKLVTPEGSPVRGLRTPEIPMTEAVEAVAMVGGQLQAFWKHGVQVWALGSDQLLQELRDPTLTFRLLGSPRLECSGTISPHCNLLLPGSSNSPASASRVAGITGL

Row | SMILES | IC50 [1] [nM] | GI50 [2, 8] [nM] | IC50 [6] [nM] | other results
1 | COc1cc(N2CCC(N3CCN(C)CC3)CC2)ccc1Nc1ncc(Cl)c(Nc2ccccc2P(C)(C)=O)n1 [Brigatinib, reference compound] | 10 to 100 |  |  | GI50 ([2]; read-out: Ba/F3_EGFR (del19-T790M-C797S) cell proliferation inhibition (IC50 value) Method 1, 700 cells/well, 72 h): 100 to 200 nM; GI50 [3]: > 200 nM
2 | CN(C)CCN1CCN2c3ccc(Nc4ncc(Cl)c(Nc5ccccc5P(C)(C)=O)n4)cc3OC[C@H]2C1 [Compound 14R] | 1 to 10 | 100 to 200 |  | IC50 [4]: 50 to 250 nM; IC50 [5]: 50 to 250 nM
3 | CP(C)(=O)c1ccccc1Nc1nc(Nc2ccc3c(c2)OC[C@H]2CN(c4ccccc4)CCN32)ncc1Cl [Compound 16R] | 1 to 10 |  | 15 to 100 | IC50 [4]: 50 to 250 nM; IC50 [5]: 50 to 250 nM
4 | CN(C)C/C=C/C(=O)N1CCN2c3ccc(Nc4ncc(Cl)c(Nc5ccccc5P(C)(C)=O)n4)cc3OC[C@H]2C1 [Compound 18R] | ≤ 1 | 100 to 200 | < 3 | 
5 | CP(C)(=O)c1ccccc1Nc1nc(Nc2ccc3c(c2)OC[C@H]2CN(C4CCNCC4)CCN32)ncc1Cl [Compound 21R] | ≤ 1 | > 200 | < 3 | 
6 | C=CC(=O)N1CCC(N2CCN3c4ccc(Nc5ncc(Cl)c(Nc6ccccc6P(C)(C)=O)n5)cc4OC[C@H]3C2)CC1 [Compound 22R] | ≤ 1 | < 20 | 3 to 15 | 
7 | Cc1cc(Nc2ncc(Cl)c(Nc3ccccc3P(C)(C)=O)n2)cc2c1N1CCNC[C@H]1CO2 [Compound 23S] | ≤ 1 | < 20 | < 3 | 
8 | Cc1cc(Nc2ncc(Cl)c(Nc3ccccc3P(C)(C)=O)n2)cc2c1OC[C@H]1CNCCN21 [Compound 24R] | 1 to 10 | 20 to 100 | 3 to 15 | 
9 | C=CC(=O)Nc1cc(Nc2ncc(Cl)c(Nc3ccccc3P(C)(C)=O)n2)cc2c1N1CCN(C)C[C@@H]1CO2 [Compound 29R] | ≤ 1 | 20 to 100 | 3 to 15 | 
10 | Cc1cc(Nc2ncc(Cl)c(Nc3ccccc3P(C)(C)=O)n2)cc2c1N1CCN(C3CCOCC3)C[C@H]1CO2 [Compound 31S] | ≤ 1 |  | < 3 | GI50 [3]: 20 to 100 nM; Cmax [7]: 160 ng/mL; Tmax [7]: 1 h; half-life [7]: 6.27 h; AUC(0-t) [7]: 1350 ng·h/mL
11 | CC(=O)N1CCC(N2CCN3c4c(C)cc(Nc5ncc(Cl)c(Nc6ccccc6P(C)(C)=O)n5)cc4OC[C@@H]3C2)CC1 [Compound 32S] | ≤ 1 | 20 to 100 | < 3 | Cmax [7]: 352 ng/mL; Tmax [7]: 3.33 h; half-life [7]: 2.22 h; AUC(0-t) [7]: 3260 ng·h/mL
12 | Cc1cc(Nc2ncc(Cl)c(Nc3ccccc3P(C)(C)=O)n2)cc2c1N1CCN(C3CN(C)C3)C[C@H]1CO2 [Compound 34S] | ≤ 1 |  | < 3 | GI50 [3]: < 20 nM
